Experiments:
[1] = test system: C. difficile carbon sources; assay: Carbon source utilization, 87 carbon sources in three base media, OD600 and acid production (Example 3B); format: cell-based; design: key: “+” and “w” refer to “positive” and “weak” utilization of the carbon source, respectively; “+” and “w” refer to “positive” and “weak” utilization of the carbon source, respectively; conditions: for utilization of carbon source NAG: NAG (N-acetylglucosamine)
From the text: Three C. difficile strains and 12 non-C. difficile bacterial strains were profiled using a panel of carbon sources. As used herein, unless otherwise indicated, carbon sources includes all sources tested as growth substrates in the experiments herein. The three C. difficile strains were Clostridium difficile ATCC 9689, Clostridium difficile ATCC 43593, and Clostridium difficile ATCC 43255, all of which are available from the American Type Culture Collection (ATCC).
Growth of the strains was tested on 87 different carbon sources in a 96-well plate format. The panel contained 34 carbon sources reported to be utilized by C. difficile in the literature (Hafiz and Oakley. 1976 J Med Microbiol 9:129-36; Wilson and Perini. 1988 Infection and Immunity 56:2610-14; Bergey and Holt. Bergey's Manual of Determinative Bacteriology. Baltimore: Williams & Wilkins, 1994; Sebaihia et al. 2006 Nature Genetics 38:779-786) including amino acids, mono-, di-, tri- and polysaccharides, glucoside and sugar alcohols. Carbon sources were added at 0.5% into three different base media (Base medium 1 SSNC composition: beef extract 1 g/L, yeast extract 2 g/L, bacto soytone 6 g/L, NaCl 4 g/L, KH2PO4 5.44 g/L, MgSO4 2 mM, CaCl2 1 mM, MnCl2 0.1 mM, cysteine hydrochloride 0.25 g/L, hemin 10 mg/L, menadione 1 mg/L, MOPS 6.3 g/L, pH 7; Base medium 2 SPOSCR composition: beef extract 1 g/L, yeast extract 2 g/L, bacto soytone 6 g/L, NaCl 4 g/L, KH2PO4 5.44 g/L, MgSO4 2 mM, CaCl2) 1 mM, MnCl2 0.1 mM, cysteine hydrochloride 0.25 g/L, hemin 10 mg/L, menadione 1 mg/L, MOPS 8.4 g/L, NaHCO3 0.4%, pH 7; Base medium 3 YCFA: casitone 10 g/L, yeast extract 2.5 g/L, cysteine hydrochloride 1 g/L, hemin 10 mg/L, ATCC vitamin solution 10 mL/L, ATCC trace element solution 10 mL/L, K2HPO4 0.45 g/L, KH2PO4 0.45 g/L, (NH4)2SO4 0.9 g/L, MgSO4×7H2O 90 mg/L, CaCl2) 90 mg/L, acetic acid 33 mM, propionic acid 9 mM, isobutyric acid 1 mM, isovaleric acid 1 mM, valeric acid 1 mM, pH 7).
Positive growth was scored by measuring optical density at 600 nm and comparing it to growth in base medium without an added carbon source. For two, base media acid production was also scored by measuring optical density at 558 nm of pH-indicator phenol red mixed with spent medium from each culture.

[2] = test system: bile salt hydrolase (BSH) activity on conjugated bile acids; assay: LC-MS screen for bile salt hydrolase (BSH) activity; conditions: for BSH gCA: substrate gCA; for BSH gCDCA: substrate gCDCA; for BSH t-aMCA: substrate t-aMCA; for BSH t-bMCA: substrate t-bMCA; for BSH tCA: substrate tCA; for BSH tCDCA: substrate tCDCA
Description: To conduct the assay, briefly, bacteria were grown on permissive agar media plates for 24 to 48 hours to generate sufficient biomass to carry out assays. The bacterial lawns were resuspended in PBS to create a homogenous suspension that was then used for the BSH assay. To assay for BSH activity, bacterial suspensions were incubated with two separate mixtures of four distinct conjugated bile acids, each at concentration of 150 μg/ml, for 4 hours at 37° C. under anaerobic conditions. The reaction mixture was then extracted with an equal volume of acetonitrile, spun down to pellet bacteria and the supernatant filtered through a 0.2 μM filter to generate a sample for LC-MS analysis. Bile acids were determined using an Agilent 1260 HPLC coupled to a Bruker Compact qTOF MS. Samples were run on a bidentate C18 column using an acetonitrile:water buffer system to separate bile acids which were then ionized in negative mode and identified using a qTOF-MS. BSH activity was determined by the formation of deconjugated bile acid products that were verified by comparison to known standards and quantified, if necessary, using standard curves.

[3] = test system: 7α-dehydroxylation of cholic acid and chenodeoxycholic acid; assay: LC-MS screen for 7α-dehydroxylation (7α-OH) activity; format: biochemical; conditions: LC-MS
[4] = test system: HSDH activity (7-, 3- or 12-hydroxyl groups) on cholic, chenodeoxycholic, deoxycholic and lithocholic acid; assay: LC-MS screen for hydroxysteroid dehydrogenase (HSDH) activity; format: biochemical; conditions: LC-MS
[5] = SCFA profile of bacterial culture supernatants by GC-MS; conditions: for propionate production: GC-MS, fucose as carbon source
From the text: The same bacterial culture supernatants used for HDAC inhibition assays described supra were submitted to GC-MS analysis to determine which SCFAs underlie the observed inhibition of HDAC. The method employed (MSOmics, Denmark) measures formate, acetate, propionate, butyrate, isobutyrate (2-methyl-propionate), isovalerate (3-methyl-butyrate), valerate (pentanoate), 4-methyl-pentanoate, caproate (hexanoate), and heptanoate. […] Numbers in Table 11 indicate detected SCFA concentration. B=butyrate; P=propionate; IB=isobutyrate, and IV=isovalerate.

[6] = test system: HDAC enzymes (HeLa nuclear extract); assay: HDAC inhibition activity in supernatants of cultures grown in different carbon sources; conditions: 25% HDAC inhibition as cut off
Description: To determine whether the HDAC inhibition was affected by the type and level of carbon source available to a bacterial species, HDAC inhibition by supernatants derived from a selection of bacterial species used in DBCs was determined. In these experiments, bacteria were grown in a variety of carbon sources including mono-, di-, polysaccharides, and porcine mucine. Briefly, 600 μL bacterial cultures in peptone/yeast extract medium (PY) supplemented with 0.5% of the selected carbon sources were inoculated in 96 deep well plates, grown for 4 days, then the microbial cells were pelleted by centrifugation, and 15 μL of the culture medium (supernatant) was used for the HDAC assay with HeLa nuclear extract as described above. Because HDAC activity is reduced at low pH (Latham et al. 2012 Nucl Acid Res 40:4794-803) and the microbial cultures had pH as low as 5, to ensure that the final pH of the assay was not reduced by the addition of supernatant, 10 μL of a 1M Tris pH 8 solution was added per well to bring the final Tris buffer concentration to 75 mM. Thus, assays were performed with 15 μL supernatant, 10 μL 1M Tris pH 8, 25 μL of assay buffer and 50 μL of diluted HeLa nuclear extract, which were preincubated for 30 minutes prior to the addition of developing reagent. Luminescence was measured after 30 minutes.

[7] = test system: bile salt hydrolase (BSH) activity on conjugated bile acids (gCA, tCA, gCDCA, tCDCA); assay: Bile salt hydrolase (BSH) activity screen using TLC; format: biochemical

Clostridium bolteae
utilization of carbon source Citrus pectin [1]: + | utilization of carbon source NAG [1]: + | utilization of carbon source cysteine [1]: w | utilization of carbon source fructose [1]: + | utilization of carbon source glucose [1]: + | utilization of carbon source mannose [1]: + | utilization of carbon source melezitose ([1]; melezitose): + | utilization of carbon source oxalate [1]: + | utilization of carbon source propanediol [1]: + | utilization of carbon source rhamnose ([1]; rhamnose): + | utilization of carbon source ribose [1]: + | utilization of carbon source serine [1]: w | utilization of carbon source sialic acid [1]: + | utilization of carbon source sucrose [1]: + | utilization of carbon source trehalose [1]: + | utilization of carbon source tryptophan [1]: w | utilization of carbon source xylose ([1]; xylose): + | BSH gCA [2]: + (‘+’ indicates greater than 50-fold increase in levels of product bile acid, suggesting strong activity) | BSH gCDCA [2]: + (‘+’ indicates greater than 50-fold increase in levels of product bile acid, suggesting strong activity) | BSH t-aMCA [2]: + (‘+’ indicates greater than 50-fold increase in levels of product bile acid, suggesting strong activity) | BSH t-bMCA [2]: + (‘+’ indicates greater than 50-fold increase in levels of product bile acid, suggesting strong activity) | BSH tCA [2]: + (‘+’ indicates greater than 50-fold increase in levels of product bile acid, suggesting strong activity) | BSH tCDCA [2]: + (‘+’ indicates greater than 50-fold increase in levels of product bile acid, suggesting strong activity) | 7a Dehydrox CA ([3]; substrate CA): − | 7a Dehydrox CDCA ([3]; substrate CDCA): − | HSDH 3a [4]: + (‘+’ indicates greater than 50-fold increase in levels of product bile acid, suggesting strong activity) | HSDH 7a [4]: − | HSDH 12a [4]: − | propionate production [5]: produced propionate but only when supplied with fucose as a carbon source | HDAC inhibition when alternative nutrient sources are tested [6]: positive

Clostridium disporicum
utilization of carbon source Apple pectin ([1]; Apple pectin): w | utilization of carbon source Citrus pectin [1]: + | utilization of carbon source NAG [1]: + | utilization of carbon source arbutin ([1]; arbutin): + | utilization of carbon source cellobiose ([1]; cellobiose): + | utilization of carbon source cyclodextrin ([1]; cyclodextrin): + | utilization of carbon source cysteine [1]: w | utilization of carbon source esculin ([1]; esculin): + | utilization of carbon source fructose [1]: + | utilization of carbon source glucose [1]: + | utilization of carbon source glutamine ([1]; glutamine): w | utilization of carbon source glycogen [1]: + | utilization of carbon source mannose [1]: + | utilization of carbon source oxalate [1]: w | utilization of carbon source salicin ([1]; salicin): + | utilization of carbon source serine [1]: w | utilization of carbon source starch ([1]; starch): + | utilization of carbon source sucrose [1]: + | utilization of carbon source threonine [1]: w | utilization of carbon source trehalose [1]: + | BSH gCA [2]: − | BSH gCDCA [2]: +/− (‘+/−’ indicates ≤50-fold change in product bile acid levels, suggesting weak activity) | BSH t-aMCA [2]: + (‘+’ indicates greater than 50-fold increase in levels of product bile acid, suggesting strong activity) | BSH t-bMCA [2]: + (‘+’ indicates greater than 50-fold increase in levels of product bile acid, suggesting strong activity) | BSH tCA [2]: +/− (‘+/−’ indicates ≤50-fold change in product bile acid levels, suggesting weak activity) | BSH tCDCA [2]: + (‘+’ indicates greater than 50-fold increase in levels of product bile acid, suggesting strong activity) | 7a Dehydrox CA ([3]; substrate CA): − | 7a Dehydrox CDCA ([3]; substrate CDCA): − | 7a Dehydrox CDCA ([3]; substrate chenodeoxycholic acid): − | 7a Dehydrox CA ([3]; substrate cholic acid): − | HSDH 3a [4]: − | HSDH 7a [4]: + (‘+’ indicates greater than 50-fold increase in levels of product bile acid, suggesting strong activity) | HSDH 12a [4]: +/− (‘+/−’ indicates ≤50-fold change in product bile acid levels, suggesting weak activity) | HSDH 3a ([4]; 3a-HSDH): − | HSDH 7a ([4]; 7a-HSDH): + (‘+’ indicates greater than 50-fold increase in levels of product bile acid, suggesting strong activity) | HSDH 12a ([4]; 12a-HSDH): − | propionate production [5]: produced propionate but only when supplied with fucose as a carbon source | HDAC inhibition when alternative nutrient sources are tested [6]: positive

Clostridium glycolicum
BSH activity on gCDCA by TLC [7]: no BSH activity | utilization of carbon source Citrus pectin [1]: + | utilization of carbon source NAG [1]: + | utilization of carbon source alanine ([1]; alanine): w | utilization of carbon source arginie ([1]; arginie): w | utilization of carbon source aspartic acid ([1]; aspartic acid): + | utilization of carbon source formate ([1]; formate): + | utilization of carbon source fructose [1]: + | utilization of carbon source glucose [1]: + | utilization of carbon source glycogen [1]: w | utilization of carbon source guar ([1]; guar): w | utilization of carbon source isoleucine ([1]; isoleucine): + | utilization of carbon source leucine ([1]; leucine): + | utilization of carbon source ornithine ([1]; ornithine): w | utilization of carbon source polygalacturonate ([1]; polygalacturonate): + | utilization of carbon source propanediol [1]: w | utilization of carbon source ribose [1]: + | utilization of carbon source serine [1]: + | utilization of carbon source sialic acid [1]: w | utilization of carbon source threonine [1]: + | utilization of carbon source tryptophan [1]: + | utilization of carbon source valine ([1]; valine): + | utilization of carbon source α-ketoglutarate ([1]; α-ketoglutarate): + | BSH gCA [2]: + (‘+’ indicates greater than 50-fold increase in levels of product bile acid, suggesting strong activity) | BSH gCDCA [2]: + (‘+’ indicates greater than 50-fold increase in levels of product bile acid, suggesting strong activity) | BSH t-aMCA [2]: + (‘+’ indicates greater than 50-fold increase in levels of product bile acid, suggesting strong activity) | BSH t-bMCA [2]: + (‘+’ indicates greater than 50-fold increase in levels of product bile acid, suggesting strong activity) | BSH tCA [2]: + (‘+’ indicates greater than 50-fold increase in levels of product bile acid, suggesting strong activity) | BSH tCDCA [2]: + (‘+’ indicates greater than 50-fold increase in levels of product bile acid, suggesting strong activity) | 7a Dehydrox CA ([3]; substrate CA): − | 7a Dehydrox CDCA ([3]; substrate CDCA): − | HSDH 3a [4]: + (‘+’ indicates greater than 50-fold increase in levels of product bile acid, suggesting strong activity) | HSDH 7a [4]: + (‘+’ indicates greater than 50-fold increase in levels of product bile acid, suggesting strong activity) | HSDH 12a [4]: − | SCFAs produced ([5]; GC-MS of culture supernatants): produced isovalerate, isobutyrate and propionate | indole test (12 strains, eight carbon sources): positive | colour of culture in indole test (F. plautii: each of the 8 carbon sources, C. glycolicum: all C-sources except glucose, pectin, FOS/inulin): turned red | HDAC inhibition when alternative nutrient sources are tested [6]: positive

Reference: patent US20240216444A1, “DESIGNED BACTERIAL COMPOSITIONS” (Seres Therapeutics, Inc., priority 2015, published 2024)
